The values that follow come from patent US6117840A, “CS-1 peptidomimetics, compositions and methods of using the same” (Cytel Corporation, priority 1997, dated 2000).

Square brackets hold non-standard residues; d marks the D form. Peptide text beside a SMILES is read from it. * marks the point of attachment. NHOctadecyl = CCCCCCCCCCCCCCCCCCN*; NHPhenethyl = c1ccc(CCN*)cc1; Morpholide = C1CN(*)CCO1; PhAc = O=C(Cc1ccccc1)*; NHBn = c1ccc(CN*)cc1; Ahx = NCCCCCC(=O)O; NHNH2 = NN*

The target of one data set is T1, VLA-4 (Homo sapiens, UniProt P05556+P13612).
T1 construct: host or cells: Jurkat (human T lymphoblastic line)
T1 sequence (P13612 34-1032): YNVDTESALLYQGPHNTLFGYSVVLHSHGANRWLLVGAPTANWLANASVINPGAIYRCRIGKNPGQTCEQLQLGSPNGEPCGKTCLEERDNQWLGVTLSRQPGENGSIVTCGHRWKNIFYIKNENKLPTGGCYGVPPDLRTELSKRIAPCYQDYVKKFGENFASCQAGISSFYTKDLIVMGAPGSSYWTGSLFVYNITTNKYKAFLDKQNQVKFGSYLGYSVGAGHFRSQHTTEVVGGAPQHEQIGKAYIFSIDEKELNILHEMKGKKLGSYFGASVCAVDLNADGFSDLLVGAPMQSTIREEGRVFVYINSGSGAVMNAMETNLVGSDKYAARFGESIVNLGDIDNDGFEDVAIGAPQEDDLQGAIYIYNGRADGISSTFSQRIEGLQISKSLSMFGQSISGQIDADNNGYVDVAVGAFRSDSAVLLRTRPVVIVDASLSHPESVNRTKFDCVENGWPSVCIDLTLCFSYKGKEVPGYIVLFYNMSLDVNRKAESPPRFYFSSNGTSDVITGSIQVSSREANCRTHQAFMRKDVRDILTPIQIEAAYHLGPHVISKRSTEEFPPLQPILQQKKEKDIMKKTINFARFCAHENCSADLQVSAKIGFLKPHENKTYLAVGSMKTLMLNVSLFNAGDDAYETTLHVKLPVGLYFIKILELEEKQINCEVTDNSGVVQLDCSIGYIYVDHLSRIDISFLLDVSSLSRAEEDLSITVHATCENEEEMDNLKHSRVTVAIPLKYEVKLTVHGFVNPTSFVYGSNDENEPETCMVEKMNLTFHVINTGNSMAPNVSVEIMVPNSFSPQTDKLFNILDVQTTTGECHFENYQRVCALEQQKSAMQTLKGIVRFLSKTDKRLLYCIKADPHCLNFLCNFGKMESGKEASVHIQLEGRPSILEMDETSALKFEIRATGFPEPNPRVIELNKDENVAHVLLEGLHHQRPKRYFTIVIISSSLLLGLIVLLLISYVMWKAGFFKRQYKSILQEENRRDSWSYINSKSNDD
T1 sequence (P05556 21-798): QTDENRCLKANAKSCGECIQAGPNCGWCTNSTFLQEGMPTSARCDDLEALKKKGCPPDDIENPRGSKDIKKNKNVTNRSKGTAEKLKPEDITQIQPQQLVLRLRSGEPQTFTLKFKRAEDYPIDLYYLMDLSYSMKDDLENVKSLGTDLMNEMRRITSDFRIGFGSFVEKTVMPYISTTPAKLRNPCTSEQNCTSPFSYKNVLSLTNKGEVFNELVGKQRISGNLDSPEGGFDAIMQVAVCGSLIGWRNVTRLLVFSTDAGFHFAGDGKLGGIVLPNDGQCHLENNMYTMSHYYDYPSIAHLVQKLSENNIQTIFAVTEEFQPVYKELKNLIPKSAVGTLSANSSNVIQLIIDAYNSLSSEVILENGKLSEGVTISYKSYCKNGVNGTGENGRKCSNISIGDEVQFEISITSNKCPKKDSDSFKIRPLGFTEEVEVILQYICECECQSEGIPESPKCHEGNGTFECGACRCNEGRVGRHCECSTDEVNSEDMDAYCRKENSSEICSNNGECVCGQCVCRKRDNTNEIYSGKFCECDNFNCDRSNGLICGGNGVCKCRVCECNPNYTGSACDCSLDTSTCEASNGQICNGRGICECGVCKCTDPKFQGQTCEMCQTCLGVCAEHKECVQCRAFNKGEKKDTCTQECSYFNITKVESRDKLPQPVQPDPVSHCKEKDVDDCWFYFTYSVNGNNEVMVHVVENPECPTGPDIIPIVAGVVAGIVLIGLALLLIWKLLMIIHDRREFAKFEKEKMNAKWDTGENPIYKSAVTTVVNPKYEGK
Test: not given
The following applies: relative to standard peptide SEQ ID NO:3 (=1), normalized IC50; about one-tenth or less of SEQ ID NO:3 assigned zero. Type of data set: cell-based. The method, then: Binding inhibition is measured here as a concentration of peptide that inhibits one-half the binding between a standard number of Jurkat cells and a standard amount of CS-1 peptide bound to the surface of a microtiter plate well. Those concentrations are conveniently expressed as IC50 values, smaller numbers indicating a lower concentration required to inhibit 50 percent binding and therefore greater potency. Further specifics of this assay are provided hereinafter.
Jurkat cells (ATCC TIB 152), a human T lymphoblastic line, labeled with ^51 chromium were used to assay in vitro binding inhibition provided by various peptides discussed herein.
The plates were prepared as follows: The 25-mer CS1 peptide (SEQ ID NO:1) dissolved at 0.5-1 μg/ml in a buffer of 0.1M NaHCO3 at pH 9.5 tha also contained 10 μg/ml of bovine serum albumin (BSA) or a conjugate o the CS1 peptide linked to ovalbumin (CS1-OVA) dissolved at 1-2.5 μg/ml in the same buffer was used as the substrate. Each well of the microtiter plates was coated with 50 μl of substrate or buffer alone for controls The wells were permitted to dry out completely and were then rinsed twice with PBS at pH 7.4. Nonspecific binding sites of each well were then blocked using 200 μl per well of RPMI/1 percent BSA for two hours at room temperature. Both solid phaseaffixed substrates provided similar results.
Jurkat cells (3-5×10^6 cells) were placed into a 15 ml Falcon.TM roundbottom tube with a cap. The tube was centrifuged, and the extra medium was then removed.
Two hundred microliters of a ^51 Cr labeling solution were added to th centrifuged cells and maintained in contact with the cells for 90-120 minutes in a warm room. This procedure typically provides about 50,000-100,000 cpm/well with about 80-100 percent cell viability. Longer contact times provide a greater amount of labeling but lower cell viability.
The labeled cells are washed with (i) complete medium, (ii) 1 mM EDTA/PBS and then (iii) RPMI/1 percent BSA free of serum components. The cells are centrifuged after each washing. The cells are finally resuspended in serumfree RPMI/1 percent BSA at a concentration of 1×10^6 viabl cells/ml, which provides a concentration that is diluted by onehalf in th assay.
Inhibitor peptides are prepared as stock solutions at 20 mg/ml in DMSO in 1.5 ml cryogenic screwcap vials, and were stored at -70° C. Using Flow™ roundbottom or Vbottom microtiter plates, the inhibitor peptides were prepared at twice the assay concentration in RPMI/1 percent BSA at 6 μl/well.
Four initial dilutions were typically used.
The ^51 Crlabeled cells (1×10^6 cells at 60 μl/well) were then admixed with the diluted peptide solutions. The admixtures were maintained at room temperature (about 22° C.) for 30 minutes.
One hundred microliters of each inhibitor peptide/cell admixture were transferred to the substratecoated wells. This was done in triplicate for each dilution. The resulting plates were incubated for 30 minutes at 37° C. and then washed gently three times with RPMI/1 percent BSA at 200 μl/well. Binding was observed microscopically, particularly after the second wash.
The bound cells were then lysed by the addition of a 0.5 percent solution of sodium dodecylsulfate in water at 100 μl/well. The resulting solutions were then processed for counting and calculation of IC50 values following usual procedures. Appropriate positive and negative controls were used with each plate so that the results of separate assays could be normalized and compared.
As for `CC(C)C[C@H](NC(=O)Cc1ccccc1)C(=O)N[C@@H](CC(=O)O)C(=O)N[C@@H](Cc1ccccc1)C(N)=O` [X L D F phenylacetyl amide] (PhAc-Leu-Asp-Phe-NH2), the “RELATIVE POTENCY (inhibition of VLA-4 binding CS-1)” value was under 1.

`CC(C)C[C@H](NC(=O)Cc1ccccc1)C(=O)N[C@@H](CC(=O)O)C(=O)NCC(=O)N1CCOCC1` [X L D G Z phenylacetyl morpholinamide] (PhAc-Leu-Asp-Gly-Morpholide): the “RELATIVE POTENCY (inhibition of VLA-4 binding CS-1)” value was found to be 9.

As for `CC(C)C[C@H](NC(=O)Cc1ccccc1)C(=O)N[C@@H](CC(=O)O)C(=O)N[C@@H](CC(C)C)C(=O)N1CCOCC1` [X L D L Z phenylacetyl morpholinamide] (PhAc-Leu-Asp-Leu-Morpholide), the “RELATIVE POTENCY (inhibition of VLA-4 binding CS-1)” value was 291.

Turning to `CC(C)C[C@H](NC(=O)Cc1ccccc1)C(=O)N[C@@H](CC(=O)O)C(=O)N[C@@H](CO)C(=O)N1CCC[C@@H]1C(N)=O` [X L D S p phenylacetyl amide] (PhAc-LDS[dP]-NH2), the “RELATIVE POTENCY (inhibition of VLA-4 binding CS-1)” value stood at 17.

With `CC(C)C[C@H](NC(=O)c1ccccc1)C(=O)N[C@@H](CC(=O)O)C(=O)N[C@H](C(=O)N1CCC[C@H]1C(N)=O)C(C)C` [X L D V P benzoyl amide], the “RELATIVE POTENCY (inhibition of VLA-4 binding CS-1)” value is 37.

With `CC(C)C[C@H](NC(=O)Cc1ccccc1)C(=O)N[C@@H](CC(=O)O)C(=O)N[C@H](C(=O)N1CCC[C@@H]1C(N)=O)C(C)C` [X L D V p phenylacetyl amide, N--phenylacetyl--Leu--Asp--Val--D--Pro--NH2], the “RELATIVE POTENCY (inhibition of VLA-4 binding CS-1)” value stood at 106.

Regarding `CC(C)C[C@H](NC(=O)Cc1ccccc1)C(=O)N[C@@H](CC(=O)O)C(=O)N[C@@H](Cc1c[nH]c2ccccc12)C(=O)N1CCC[C@@H]1C(N)=O` [X L D W p phenylacetyl amide] (PhAc-LDW[dP]-NH2), the “RELATIVE POTENCY (inhibition of VLA-4 binding CS-1)” value is 184.

As to `CC(C)C[C@H](NC(=O)Cc1ccccc1)C(=O)N[C@@H](CC(=O)O)C(=O)N[C@@H](Cc1ccc(O)cc1)C(=O)N1CCOCC1` [X L D Y Z phenylacetyl morpholinamide, N--phenylacetyl--Leu--Asp--Tyr--morpholinamide] (PhAc-Leu-Asp-Tyr-Morpholide), the “RELATIVE POTENCY (inhibition of VLA-4 binding CS-1)” value is 313.

For `CC(C)C[C@H](NC(=O)Cc1ccccc1)C(=O)N[C@@H](CC(=O)O)C(=O)N[C@@H](Cc1ccc(O)cc1)C(=O)N1CCC[C@@H]1C(N)=O` [X L D Y p phenylacetyl amide, N--phenylacetyl--Leu--Asp--Tyr--D--Pro--NH2] (PhAc-LDY[dP]-NH2), the “RELATIVE POTENCY (inhibition of VLA-4 binding CS-1)” value was determined as 640.

Regarding `CC(C)C[C@H](NC(=O)Cc1ccccc1)C(=O)N[C@@H](CC(=O)O)C(=O)NNC(=O)OC(C)(C)C` [X L D Z phenylacetyl N'-t-Boc-hydrazide], the “RELATIVE POTENCY (inhibition of VLA-4 binding CS-1)” value was determined as 2.

`CC(C)C[C@H](NC(=O)Cc1ccccc1)C(=O)N[C@@H](CC(=O)O)C(=O)NCc1ccccc1` [X L D Z phenylacetyl benzylamide] (PhAc-Leu-Asp-NHBn): the “RELATIVE POTENCY (inhibition of VLA-4 binding CS-1)” value worked out at 19.

Take `CC(C)C[C@H](NC(=O)Cc1ccccc1)C(=O)N[C@@H](CC(=O)O)C(=O)NC(c1ccccc1)c1ccccc1` [X L D Z phenylacetyl benzylhydrylamide]: the “RELATIVE POTENCY (inhibition of VLA-4 binding CS-1)” value stood at 3.

Regarding `CC(C)C[C@H](NC(=O)Cc1ccccc1)C(=O)N[C@@H](CC(=O)O)C(=O)N(Cc1ccccc1)Cc1ccccc1` [X L D Z phenylacetyl dibenzylamide], the “RELATIVE POTENCY (inhibition of VLA-4 binding CS-1)” value turned out to be 0.

For the compound `CC(C)C[C@H](NC(=O)Cc1ccccc1)C(=O)N[C@@H](CC(=O)O)C(=O)NN` [X L D Z phenylacetyl hydrazide] (PhAc-Leu-Asp-NHNH2), the “RELATIVE POTENCY (inhibition of VLA-4 binding CS-1)” value is on record as under 1.

As to `CC(C)C[C@H](NC(=O)Cc1ccccc1)C(=O)N[C@@H](CC(=O)O)C(=O)NCCc1ccccc1` [X L D Z phenylacetyl phenethylamide] (PhAc-Leu-Asp-NHPhenethyl), the “RELATIVE POTENCY (inhibition of VLA-4 binding CS-1)” value amounted to 19.

The data set is the same for the next values; noted with them: relative to standard peptide SEQ ID NO:3 (=1), normalized IC50; about one-tenth or less of SEQ ID NO:3 assigned zero; listed as X L D V p benzoyl amide.
In the case of `CC(C)C[C@H](NC(=O)c1ccccc1)C(=O)N[C@@H](CC(=O)O)C(=O)N[C@H](C(=O)N1CCC[C@H]1C(N)=O)C(C)C` [X L D V P benzoyl amide], the “RELATIVE POTENCY (inhibition of VLA-4 binding CS-1)” value is given as 20.

The data set is the same for the next values; noted with them: relative to standard peptide SEQ ID NO:3 (=1), normalized IC50; about one-tenth or less of SEQ ID NO:3 assigned zero; listed as X L D Y P phenylacetyl amide.
Take `CC(C)C[C@H](NC(=O)Cc1ccccc1)C(=O)N[C@@H](CC(=O)O)C(=O)N[C@@H](Cc1ccc(O)cc1)C(=O)N1CCC[C@@H]1C(N)=O` [X L D Y p phenylacetyl amide, N--phenylacetyl--Leu--Asp--Tyr--D--Pro--NH2] (PhAc-LDY[dP]-NH2): the “RELATIVE POTENCY (inhibition of VLA-4 binding CS-1)” value stood at 405.

Tested on in the next data set: not listed separately
Briefly: Water solubility. It counts as physicochemical. The following applies: forms a turbid dispersion rather than a solution.
In the case of `CCCCCCCCCCCCCCCCCCNC(=O)CCCCCNC(=O)[C@@H]1CCCN1C(=O)[C@H](Cc1ccccc1)NC(=O)[C@H](CC(=O)O)NC(=O)[C@H](CC(C)C)NC(=O)Cc1ccccc1` [phenylacetyl--Leu--Asp--Phe--Pro--NH(CH2)5 C(O)NHC18 H37] (PhAc-LDFP[Ahx]-NHOctadecyl; C-terminus assumed), the water solubility result is “not water-soluble”.

In another data set the test system is Jurkat T cell line. The data set is described as follows: Binding of Jurkat cells to frozen human RA synovial sections. It counts as cell-based. The following applies: 10-mer at 500 μg/ml; inhibitor peptide at its IC50. The protocol:
Binding studies were carried out using the Jurkat T cell line and frozen RA synovial sections. […] Stimulated MOLT-4 cells behaved similarly.
As for `CC[C@H](C)[C@H](NC(=O)[C@H](CCC(=O)O)NC(=O)[C@@H]1CCCN1C(=O)CN)C(=O)N[C@@H](CC(C)C)C(=O)N[C@@H](CC(=O)O)C(=O)N[C@H](C(=O)N1CCC[C@H]1C(=O)N[C@@H](CO)C(=O)N[C@H](C(=O)O)[C@@H](C)O)C(C)C` [G P E I L D V P S T free amine free acid, GPEILDVPST] (H-GPEILDVPST-OH), the “inhibition of Jurkat cell adhesion to RA synovial sections” value is reported as “could be inhibited”.
